Laboratory results reported in BindingDB's records for patent US20250326790 (University of Southampton, 2025).
Where a SMILES comes first, the peptide text is derived from it. [ ]: non-standard residue; d: D form. The star is where a group is joined. Phe(4-I) = N[C@@H](Cc1ccc(I)cc1)C(=O)O; hLeu = CC(C)CC[C@H](N)C(=O)O; Isobutyryl = CC(C)C(=O)*

Biological target: T1, Hypoxia-inducible factor 1-alpha [228-298] (Homo sapiens, UniProt Q16665)
T1 construct: 228-298
Experiment: Assessment of HIF-1α and 2α Binding Activity in In Vitro Assays
Method: MST experiments were performed on a Monolith NT.115 system (Nanotemper Technologies GmbH), in assay buffer containing 50 nM labelled protein, 10% DMSO and 0.05% TWEEN-20. MST measurements were performed using 50% LED and 50% MST power.

T1 sequence (Q16665 whole entry): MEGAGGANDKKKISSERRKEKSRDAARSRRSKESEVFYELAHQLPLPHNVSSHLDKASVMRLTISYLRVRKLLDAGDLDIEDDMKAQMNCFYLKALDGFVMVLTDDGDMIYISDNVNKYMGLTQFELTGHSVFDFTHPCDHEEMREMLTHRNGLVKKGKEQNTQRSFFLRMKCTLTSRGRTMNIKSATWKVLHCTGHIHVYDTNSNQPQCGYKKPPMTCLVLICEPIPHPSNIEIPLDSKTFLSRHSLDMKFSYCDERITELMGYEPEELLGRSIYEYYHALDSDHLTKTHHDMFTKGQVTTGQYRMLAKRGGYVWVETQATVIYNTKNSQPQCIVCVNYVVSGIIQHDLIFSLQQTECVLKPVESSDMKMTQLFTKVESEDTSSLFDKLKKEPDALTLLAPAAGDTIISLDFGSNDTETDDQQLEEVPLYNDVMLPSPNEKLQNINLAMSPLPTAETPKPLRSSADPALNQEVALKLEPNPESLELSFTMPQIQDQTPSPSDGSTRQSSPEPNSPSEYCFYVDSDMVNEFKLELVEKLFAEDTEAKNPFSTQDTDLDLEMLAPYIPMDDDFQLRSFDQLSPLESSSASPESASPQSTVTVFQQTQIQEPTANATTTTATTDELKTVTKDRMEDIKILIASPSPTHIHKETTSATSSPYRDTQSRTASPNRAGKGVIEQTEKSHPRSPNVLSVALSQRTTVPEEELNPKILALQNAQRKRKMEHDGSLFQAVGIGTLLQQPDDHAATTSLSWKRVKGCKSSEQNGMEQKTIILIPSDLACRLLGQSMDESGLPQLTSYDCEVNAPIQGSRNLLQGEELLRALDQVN

Structure (SMILES)	Kd [µM]
CC(C)CC[C@H](NC(=O)C(C)C)C(=O)N[C@@H](Cc1ccc(I)cc1)C(=O)N[C@@H](CS)C(N)=O [US20250326790, Example 1] (Isobutyryl-[hLeu]-[Phe(4-I)]-Cys-NH2)	> 40
CC(C)CC[C@H](NS(=O)(=O)c1ccc(Cl)s1)C(=O)N[C@@H](Cc1ccc(I)cc1)C(=O)N[C@@H](CS)C(=O)NCCCCCCN [US20250326790, Example 41]	> 100
